Source: US20130324595A1, “C-GLUCOSIDIC ELLAGITANNIN COMPOUNDS FOR USE FOR ALTERING THE SUPRAMOLECULAR ARRANGEMENT OF ACTIN AND FOR THE TREATMENT OF OSTEOPOROSIS, CANCER, BACTERIAL INFECTION AND VIRAL INFECTION” (priority 2011, published 2013)
“Also recorded” adds a separate entry of the source. *1 amine or outer side, *2 acyl side, *3 side chain or, on linkers, in order; H or OH if unused. Where a SMILES comes first, the peptide text is derived from it. Bridges are numbered along the chain shown (N, C = ends). [ ]: non-standard residue; d: D form. Trp(2-yl) = O=C([C@H](Cc1c([*:3])[nH]c2ccccc12)N[*:1])[*:2]; Leu(4R-OH,5-OH) = C[C@](O)(CO)C[C@H](N)C(=O)O; cisHyp = O=C(O)[C@@H]1C[C@H](O)CN1

Experiments:
[1] = test system: podosomes in bovine aortic endothelial cells (BAEc); experiment: podosome formation in TGF-β stimulated BAEc; assay type: cell-based; conditions: for inhibition of podosome formation: compound added from the beginning of the TGF-β stimulation (24 h) versus last hour
Method: FIG. 7. Dose responses of endothelial cells following vescalagin or vescalin treatment. BAEc were incubated for 24 hours with TGF-β (which stimulates formation of podosomes), and different concentrations of vescalagin or vescalin were added either from the beginning of the TGF-β stimulation, or during the last hour of stimulation. Cells were then fixed and treated for immunofluorescence analysis. Podosomes were visualized by double staining using phalloidin (a F-actin marker) and cortactin (a podosome marker). The percentage of total cells showing podosomes was then quantified and compared to the control (cells incubated with TGF-β only). A. BAEc were stimulated for 24 hours with TGF-β, and vescalagin or vescalin was added during the last hour of stimulation. B. BAEc were stimulated for 24 hours with TGF-β, and vescalagin or vescalin was added from the beginning of the TGF-β stimulation.
In this assay, bovine aortic endothelial cells (BAEc) were used. These cells form podosomes following a few hours of incubation with TGF-β. Cells were fixed after 24 hours of stimulation. Two protocols were tested. In the first protocol, cells were stimulated for 24 hours with TGF-β, and vescalagin or vescalin was added during the last hour of stimulation (FIG. 7A). In the second protocol, cells were stimulated for 24 hours with TGF-β, and vescalagin or vescalin was added from the beginning of the TGF-β stimulation (FIG. 7B). In both cases, cells were then fixed and treated for immunofluorescence analysis. Podosomes were visualized by double staining using phalloidin (a F-actin marker) and cortactin (a podosome marker). The percentage of total cells showing podosomes was then quantified and compared to the control (cells incubated with TGF-β only) (FIGS. 7A and 7B).

osteoclast [2] = conditions: cited from earlier work
osteoclast [3] = conditions: cited from earlier work; remark: listed apart in the source
BAEc [4] = experiment: cellular morphology and mitosis, light microscopy; assay type: cell-based, bovine
Source text: (§1) Vescalagin-induced dissolution of stress fibers affected cellular morphology and, eventually, viability. […] Functional consequences on cell behavior translated into impaired endothelial cell wound repair capacity. […] Overall, this ensemble of experimental data illustrates the rapid and sustained effects of vescalagin on cell behavior.

[5] = test system: actin cytoskeleton in bovine aortic endothelial cells (BAEc); experiment: effect on the actin cytoskeleton (stress fibers) in living BAEc; assay type: cell-based
Source text: The inventors' initial interest in studying these C-glucosidic ellagitannins stems from the premise that the highly pre-organized medium-sized ring-containing multiple-phenol array featured by such natural products should be structurally well-suited to interfere with the construction of protein-made cellular architectures, on top of the list of which are actin filaments and microtubules. The inventors thus decided to probe the latter hypothesis by first examining the effect of a selection of four C-glucosidic ellagitannins on the actin cytoskeleton in living cells. […] The selected compounds were the two most abundant C-glucosidic ellagitannins found in the heartwood of oak species, vescalagin and its C-1 epimer castalagin, and their corresponding two minor congeners, vescalin and castalin, both lacking the hexahydroxydiphenoyl (HHDP) unit at positions 4 and 6 of the glucose core (FIG. 1). The inventors used bovine aortic endothelial cells (BAEc), a well-characterized type of primary cells. Any of the four ellagitannins used at 50 μM rapidly provoked the disappearance of the internal stress fiber network observed in control cells.

BAEc [6] = experiment: propidium iodide (PI) staining, cytotoxicity; assay type: cell-based, bovine; conditions: for cytotoxicity by PI staining: 50 μM
Source text: as §1

F-actin [7] = experiment: phalloidin binding to vescalagin-decorated F-actin (binding site)
actin cytoskeleton = experiment: reversibility of cytoskeletal alterations by washing out; assay type: cell-based
Source text: The vescalagin-induced F-actin disrupting effect seen in BAEc was also observed in fibroblast cells (baby hamster kidney cells, BHK), which also express β-actin as the main actin isoform, as well as in smooth muscle cells (A7r5), which in contrast predominantly express α-actin.
It rapidly enters cells, and this despite its high hydrophilicity. Its dose-dependent effects on the actin cytoskeleton relies on its interaction with F-actin without any perturbation of the microtubule network. […] The results found by the inventors are consistent with a mode of action through which the binding of vescalagin occurs along the length of the actin filament, probably at the protein-protein interface of the so-polymerized actin supramolecular association. The presence of two analogous polyhydroxylated arene motifs (i.e., the NHTP and HHDP units, see FIG. 1) likely constitutes the key structural feature that enables vescalagin to wind F-actin into balls by engaging it through multiple intra- and/or intermolecular contacts. […] Future studies will be devoted to the elucidation of the vescalagin-actin interaction at the molecular level and to the comparative evaluation of the anti-actin effects of the other C-glucosidic ellagitannins initially screened herein. Moreover, the SPR method the inventors developed using a biotinylated vescalagin conjugate to discriminate the binding of vescalagin to F- versus G-actin confirms the value of the technique for the study of polyphenol-protein interactions. Finally, the inventors have to recall that oak-derived C-glucosidic ellagitannins, including vescalagin, are present in wines as a result of their aging in oak-made barrels.

microtubule network = experiment: alteration of the microtubule network in treated cells; assay type: cell-based
actin (G-actin/F-actin) = experiment: in vitro actin polymerization, F-actin (pellet) versus G-actin (supernatant) at steady state; assay type: biochemical; conditions: for G-actin/F-actin ratio at steady state: vescalagin 100 μM, cytochalasin D 4 μM, phalloidin 2 μM
Method: (§2) FIG. 4. A. Actin polymerization at its steady state in both permissive and non-permissive conditions was continued (30 min) in the presence of either alexa633-phalloidin or vescalagin-FITC. […] B. This effect is dose-dependent. C.
In the same way, quantifying the amount of F-actin (pellet) versus that of G-actin (supernatant) at the steady state was achieved by Western blot after high-speed centrifugation of samples treated with either vescalagin (100 μM), cytochalasin D (4 μM) or phalloidin (2 μM). […] The same effect was observed when using the vescalagin-FITC conjugate (FIG. 4C).

[8] = test system: mechanically injured endothelium; experiment: endothelial cell wound repair; assay type: cell-based, bovine
Source text: as §1

actin-GFP in BAEc = experiment: live imaging and FRAP on actin-GFP expressing BAEc; assay type: cell-based, bovine; conditions: 100 μM
Method: FIG. 2. Live imaging of BAEc expressing actin-GFP were subjected to FRAP in the absence or presence of vescalagin (100 μM). A. A boxed region (200×100 pixel square) was photobleached [before (t 0″), immediately after (t 38″) and after photobleaching (t 98″)]; and normalized fluorescence intensity in the boxed region is shown for the entire duration of the FRAP experiment. […] B. Quantitation of the results showing the immobile fraction as calculated from the difference between pre- and post-photobleaching intensities (n=6).
Destabilization of the stress fibers was visualised by the progressive loss of filamentous staining, concomitantly with cell retraction as observed in phase contrast. Noticeably, thick F-actin bundles were maintained. To detect and unveil the internal dynamics of these apparently immobile F-actin bundles, the inventors performed a fluorescence recovery after photobleaching (FRAP) assay on actin-GFP expressing BAEc in the absence or presence of vescalagin (FIG. 2). […] From these experiments, the inventors conclude that vescalagin affects both thin and thick actin fibers, F-actin bundles made of packed actin filaments being less vulnerable to the action of vescalagin than the single filament dendritic meshwork at the cell periphery.

bone resorption = conditions: by inhibiting calcium release; cited from earlier work
F-actin [9] = experiment: in vitro actin polymerization, high-speed centrifugation, stained pellet; assay type: binding; conditions: 30 min at steady state
Method: as §2
To explore whether or not the interaction between vescalagin and actin was direct, the inventors set up an in vitro assay based on actin polymerization from a solution of Ca^2+-actin-ATP monomers. Spontaneous polymerization occurs when Ca^2+ is replaced by Mg^2+ provided by the F-actin buffer. The inventors performed high-speed centrifugation of the samples to separate the neo-formed polymers from the monomers to discriminate binding of vescalagin to either F-actin, G-actin or both. To visualize these presumptive molecular associations, the inventors used again the vescalagin-bearing fluoprobe and a fluorescent Alexa633-phalloidin to stain F-actin. Actin polymerization was carried out until it reached its steady state in both permissive and non-permissive conditions (i.e., in the presence or absence of Mg^2+-containing F-buffer). The experiment was then continued for 30 min in the presence of either vescalagin-FITC conjugate or Alexa633-phalloidin, and the formation of actin polymers was then assessed by high-speed centrifugation.

Compound: O=C1O[C@H](CO)[C@@H](O)[C@@H]2OC(=O)c3c(c(O)c(O)c(O)c3-c3c(O)c(O)c(O)c4c3C(=O)O[C@H]2[C@@H]4O)-c2c1cc(O)c(O)c2O [vescalin]
- inhibition of podosome formation [1]: less pronounced effects

Compound: O=C1O[C@H]2[C@H](O)[C@@H](OC(=O)c3cc(O)c(O)c4c3[C@@H]3C1=CC(=O)C(O)(O)C3(O)O4)[C@H](OC(=O)c1cc(O)c(O)c(O)c1)O[C@@H]2CO (stereo partly shown) [furosin]
- osteoclast differentiation and function (osteoclast [2]): inhibitory effect

Compound: roburin C
- inhibition of osteoclast differentiation and function (osteoclast [3]): highest potency

Compound: O=C1OCC2OC(=O)c3cc(O)c(O)c(O)c3-c3c(O)c(O)c(O)c4c3C(=O)OC(C2OC(=O)c2cc(O)c(O)c(O)c2-c2c1cc(O)c(O)c2O)C1OC(=O)c2c-4c(O)c(O)c(O)c2C1O (stereo not shown) [vescalagin]
- mitosis (BAEc [4]; 50 μM): still observed
- mitosis (BAEc [4]; 100 μM): impaired
- cell morphology (BAEc [4]; range of concentrations and incubation times applied): changed their morphology from a well spread to a more retracted appearance
- relative activity within the series evaluated ([5]; four C-glucosidic ellagitannins): most active compound of the series
- cytotoxicity by PI staining (BAEc [6]; 6 h): no cytotoxicity
- cytotoxicity by PI staining (BAEc [6]; 24 h): no cytotoxicity
- cell death (apoptotic nuclei) (BAEc [6]; 100 μM, 24 h): irreversible commitment to cell death; also recorded: presence of apoptotic nuclei
- binding site on F-actin relative to phalloidin (F-actin [7]): does not bind at the same site(s) as phalloidin
- reversibility of actin cytoskeleton alterations by washing (actin cytoskeleton; treatment 1 hour, 100 μM): reversible by washing
- reversibility of actin cytoskeleton alterations by washing (actin cytoskeleton; treatment 24 hours, 50 μM): reversible by washing
- reversal of cytoskeletal alterations by washing out with fresh medium (actin cytoskeleton; within 1 h): completely reversed
- reversibility of effects on the actin cytoskeleton (actin cytoskeleton; within 1 h of treatment, up to 100 μM): fully reversible
- alteration of the microtubule network (microtubule network): no alteration of the microtubule network
- dose dependence of the G-actin depletion (actin (G-actin/F-actin)): dose-dependent manner
- G-actin/F-actin ratio at steady state (actin (G-actin/F-actin)): marked depletion of G-actin
- serum-stimulated healing of mechanically injured endothelium ([8]; 20 μM): reduced by about half
- cell viability ([8]; 100 μM, 6 h): still compatible with the maintenance of cell viability
- repopulation of the denudated area ([8]; 100 μM, 6 h): remained virtually unpopulated
- actin-GFP distribution, live imaging (actin-GFP in BAEc): immediate alteration of actin-GFP distribution at cell margin
- immobile fraction of actin (FRAP) (actin-GFP in BAEc; n=6): increases the immobile fraction of actin
- inhibition of podosome formation (percentage of cells showing podosomes) ([1]; 24 h TGF-β, vescalagin versus vescalin): stronger inhibitor activity than vescalin
- inhibition of podosome formation [1]: less pronounced effects

Compound: O=C(OC1C(OC(=O)c2cc(O)c(O)c(O)c2Oc2cc3c(c(O)c2O)-c2c(cc(O)c(O)c2O)C(=O)OC(C2OC(=O)c4cc(O)c(O)c(O)c4-c4c(cc(O)c(O)c4O)C(=O)OCC2O)C(C(O)c2c(O)cc4c(c2O)CC(O)C(c2ccc(O)c(O)c2)O4)OC3=O)C(O)OC2COC(=O)c3cc(O)c(O)c(O)c3-c3c(cc(O)c(O)c3O)C(=O)OC21)c1cc(O)c(O)c(O)c1 (stereo not shown) [camelliatannin D]
- bone resorption (bone resorption): potentially inhibits bone resorption

Compound: fluorescein isothiocyanate [FITC]
- binding to F-actin (stained pellet after high-speed centrifugation) (F-actin [9]): no F-actin was detected

Compound: C=C1[C@@H](C)[C@H]2[C@H](Cc3ccccc3)NC(=O)[C@]23[C@H](OC(C)=O)/C=C/[C@@](C)(O)C(=O)[C@@H](C)C/C=C/[C@H]3[C@@H]1O [cytochalasin D, reference compound]
- effect on actin configuration (stress fibers) ([5]; BAEc, cytochalasin D comparison): also effective
- alteration of the microtubule network (microtubule network): no alteration of the microtubule network

Compound: roburin D
- inhibition of osteoclast differentiation and function (osteoclast [3]): highest potency

Compound: C[C@@H]1NC(=O)[C@H](C[C@@](C)(O)CO)NC(=O)[C@@H]2Cc3c([nH]c4ccccc34)SC[C@H](NC(=O)[C@@H]([C@H](C)O)NC1=O)C(=O)N1C[C@@H](O)C[C@H]1C(=O)N[C@@H](C)C(=O)N2 [phalloidin, reference compound] (cyclo(A[dT]C[cisHyp]A[Trp(2-yl)][Leu(4R-OH,5-OH)]); thioether 3-6)
- G-actin/F-actin ratio at steady state (actin (G-actin/F-actin)): marked depletion of G-actin
